According to patent EP4603105A1, “PHARMACEUTICAL COMPOSITION CONTAINING CYCLIC COMPOUND HAVING SELECTIVE KRAS INHIBITORY EFFECT AGAINST HRAS AND NRAS” (CHUGAI SEIYAKU KABUSHIKI KAISHA, priority 2022, dated 2024):
Where a SMILES comes first, the peptide text is derived from it. Bridges are numbered along the chain shown (N, C = ends). [ ]: non-standard residue; d: D form. The star is where a group is joined. hPhe(3-Cl-4-CF3) = N[C@@H](CCc1ccc(C(F)(F)F)c(Cl)c1)C(=O)O; NPrPhe(4-CF3) = CCCN[C@@H](Cc1ccc(C(F)(F)F)cc1)C(=O)O; NEtPhe(4-Me) = CCN[C@@H](Cc1ccc(C)cc1)C(=O)O; NMeGly(cPent) = CN[C@H](C(=O)O)C1CCCC1; Hyp = O=C(O)[C@@H]1C[C@@H](O)CN1; NMeD = CN[C@@H](CC(=O)O)C(=O)O; Ac4c(3-oxa) = NC1(C(=O)O)COC1; NMeL = CN[C@@H](CC(C)C)C(=O)O; Morpholide = C1CN(*)CCO1; Ac5c = NC1(C(=O)O)CCCC1; Sar = CNCC(=O)O

Key:
[1] = test system: human lung cancer strain NCI-H441; assay type: cell-based
Outline: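 Step one: dispense the test compound in serial DMSO dilutions. Step three: add the reagent and measure […].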

[2] = molecular target: GDP-bound NRAS wild-type protein (Homo sapiens, UniProt P01111); assay: Binding to NRAS by surface plasmon resonance (SPR), KD and KD ratio to KRAS
Chain of GDP-bound NRAS wild-type protein (P01111 whole entry): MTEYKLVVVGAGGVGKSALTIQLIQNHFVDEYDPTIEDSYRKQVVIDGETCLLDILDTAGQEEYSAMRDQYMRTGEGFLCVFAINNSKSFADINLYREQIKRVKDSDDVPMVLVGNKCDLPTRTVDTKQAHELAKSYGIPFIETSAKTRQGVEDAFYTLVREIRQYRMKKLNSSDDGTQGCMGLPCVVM
Outline: (§1)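 Running buffer contained 10 µM GDP and 10 mM MgCl2 to keep RAS in the GDP state, with 4% DMSO at pH 7.4. Compounds were flowed at 100 µL/min in 75 s steps of rising concentration over captured biotin-Avi RAS at 30°C. Sensorgrams were fitted 1:1 for KD.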

HRAS wild-type protein = HRAS wild-type protein (Homo sapiens, UniProt P01112); assay: Binding to HRAS by surface plasmon resonance (SPR), KD and KD ratio to KRAS
Chain of HRAS wild-type protein (P01112 whole entry): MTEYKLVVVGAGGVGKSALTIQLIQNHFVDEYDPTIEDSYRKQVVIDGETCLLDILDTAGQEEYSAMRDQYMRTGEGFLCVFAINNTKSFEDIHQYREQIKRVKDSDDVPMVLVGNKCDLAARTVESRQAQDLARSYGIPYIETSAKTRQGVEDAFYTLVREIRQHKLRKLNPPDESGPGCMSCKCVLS
Outline: as §1

[3] = ratio of KD for GDP-bound NRAS wild-type protein to KD for KRAS
[4] = ratio of KD for HRAS wild-type protein to KD for KRAS
[5] = ratio of the KD value with respect to GDP-bound NRAS wild-type protein to the KD value with respect to KRAS
[6] = ratio of the KD value with respect to HRAS wild-type protein to the KD value with respect to KRAS

SMILES: CCC[C@H]1C(=O)N[C@@H]([C@@H](C)CC)C(=O)N(C)CC(=O)N(C)[C@H]2C/C=C\CCN(C2=O)[C@@H](Cc2ccc(C(F)(F)F)cc2)C(=O)N(C)CC(=O)N[C@@H](CCc2cc(Cl)c(C(F)(F)F)c(Cl)c2)C(=O)N2C[C@H](OCC)C[C@H]2C(=O)NC2(CC(C)(C)C2)C(=O)N(C)[C@@H](C2CCCC2)C(=O)N(C)[C@H](C(=O)N(C)C)CC(=O)N1C [PP2859]
- IC50 [1]: 6.8 nM
- NRAS /KRAS [2, 3]: A (a compound having 10 or more and less than 20 is denoted as A)
- HRAS /KRAS (HRAS wild-type protein; [4]): A (a compound having 10 or more and less than 20 is denoted as A)

SMILES: CC[C@H](C)[C@@H]1NC(=O)[C@H](CC(C)C)N(C)C(=O)C[C@@H](C(=O)N2CCOCC2)N(C)C(=O)[C@H](C2CCCC2)N(C)C(=O)C2(CCC2)NC(=O)[C@@H]2[C@@H](OCC3CC3)CCN2C(=O)[C@H](CCc2cc(F)c(C(F)(F)F)c(F)c2)NC(=O)CN(C)C(=O)[C@H](Cc2ccc(C(F)(F)F)cc2)N2CCCC[C@@H](C2=O)N(C)C(=O)CN(C)C1=O [PP1072]
- IC50 [1]: 13 nM
- NRAS /KRAS [2, 3]: B (a compound having 3 or more and less than 10 is denoted as B)
- HRAS /KRAS (HRAS wild-type protein; [4]): B (a compound having 3 or more and less than 10 is denoted as B)

SMILES: CCO[C@@H]1C[C@H]2C(=O)NC3(CCC3)C(=O)N(C)[C@@H](C3CCCC3)C(=O)N(C)[C@H](C(=O)N3CCOCC3)CC(=O)N(C)[C@@H](CC)C(=O)N[C@@H]([C@@H](C)CC)C(=O)N(C)CC(=O)N(C)[C@H]3CCCCCN(C3=O)[C@@H](Cc3ccc(C(F)(F)F)cc3)C(=O)N(C)CC(=O)N[C@@H](CCc3cc(F)c(C(F)(F)F)c(F)c3)C(=O)N2C1 [PP0678]
- IC50 [1]: 35.6 nM
- NRAS /KRAS [2, 5]: B (a compound having 3 or more and less than 10 is denoted as B)
- HRAS /KRAS (HRAS wild-type protein; [6]): B (a compound having 3 or more and less than 10 is denoted as B)

SMILES: CC(C)C[C@H]1C(=O)N[C@@H](C2CCC2)C(=O)N(C)CC(=O)N(C)[C@H]2CCCCN(C2=O)[C@@H](Cc2ccc(C(F)(F)F)cc2)C(=O)N(C)CC(=O)N[C@@H](CCc2cc(F)c(C(F)(F)F)c(F)c2)C(=O)N2CCC[C@H]2C(=O)NC2(CCCC2)C(=O)N(C)[C@@H](C2CCCC2)C(=O)N(C)[C@H](C(=O)N2CCOCC2)CC(=O)N1C [PP0596]
- IC50 [1]: 8.3 nM
- NRAS /KRAS [2, 5]: B (a compound having 3 or more and less than 10 is denoted as B)
- HRAS /KRAS (HRAS wild-type protein; [6]): B (a compound having 3 or more and less than 10 is denoted as B)

SMILES: CCO[C@@H]1C[C@H]2C(=O)NC3(CCCC3)C(=O)N(C)[C@@H](C3CCCC3)C(=O)N(C)[C@H](C(=O)N3CCOCC3)CC(=O)N(C)[C@@H](CC(C)C)C(=O)N[C@@H]([C@@H](C)CC)C(=O)N(C)CC(=O)N(C)CC(=O)N(CC)[C@@H](Cc3ccc(C)cc3)C(=O)N(C)CC(=O)N[C@@H](CCc3ccc(C(F)(F)F)c(Cl)c3)C(=O)N2C1 [PP0042] ([NMeL]I[Sar][Sar][NEtPhe(4-Me)][Sar][hPhe(3-Cl-4-CF3)][Hyp](Et)[Ac5c][NMeGly(cPent)][NMeD]-Morpholide; lactam N-11)
- IC50 [1]: 7.2 nM
- NRAS /KRAS [2, 3]: C (A compound having a KD ratio of 0.1 or more and less than 3 is denoted as C)
- HRAS /KRAS (HRAS wild-type protein; [4]): C (A compound having a KD ratio of 0.1 or more and less than 3 is denoted as C)

SMILES: CCO[C@@H]1C[C@H]2C(=O)NC3(CC(C)(C)C3)C(=O)N(C)[C@@H](C(CC)CC)C(=O)N(C)[C@H](C(=O)N(C)C)CC(=O)N(C)[C@@H](C(C)C)C(=O)N[C@@H]([C@@H](C)CC)C(=O)N(C)CC(=O)N(C)[C@H]3C/C=C\CCN(C3=O)[C@@H](Cc3ccc(C)cc3)C(=O)N(C)CC(=O)N[C@@H](CCc3ccc(C(F)(F)F)c(OC)c3)C(=O)N2C1 [PP2173]
- IC50 [1]: 19.9 nM
- NRAS /KRAS [2, 5]: A (a compound having 10 or more and less than 20 is denoted as A)
- HRAS /KRAS (HRAS wild-type protein; [6]): A (a compound having 10 or more and less than 20 is denoted as A)

SMILES: CCC[C@H]1C(=O)N[C@@H]([C@@H](C)CC)C(=O)N(C)CC(=O)N(C)[C@H]2C/C=C\CCN(C2=O)[C@@H](Cc2ccc(C(F)(F)F)cc2)C(=O)N(C)CC(=O)N[C@@H](CCc2ccc3c(C)c(C)n(C)c3c2)C(=O)N2C[C@H](OCC)C[C@H]2C(=O)NC2(CC(C)(C)C2)C(=O)N(C)[C@@H](C2CCCC2)C(=O)N(C)[C@H](C(=O)N(C)C)CC(=O)N1C [PP2893]
- IC50 [1]: 72 nM
- NRAS /KRAS [2, 3]: A (a compound having 10 or more and less than 20 is denoted as A)
- HRAS /KRAS (HRAS wild-type protein; [4]): A (a compound having 10 or more and less than 20 is denoted as A)

SMILES: CCC[C@H]1C(=O)N[C@@H]([C@@H](C)CC)C(=O)N(C2CC2)CC(=O)N(C)[C@H]2C/C=C\CCN(C2=O)[C@@H](Cc2ccc(C)cc2)C(=O)N(C)CC(=O)N[C@@H](CCc2cc(Cl)c(C(F)F)c(Cl)c2)C(=O)N2C[C@H](OCC)C[C@H]2C(=O)NC2(CC(C)(C)C2)C(=O)N(C)[C@@H](C2CCCC2)C(=O)N(C)[C@H](C(=O)N(C)C)CC(=O)N1C [PP2877]
- IC50 [1]: 96 nM
- NRAS /KRAS [2, 3]: A (a compound having 10 or more and less than 20 is denoted as A)
- HRAS /KRAS (HRAS wild-type protein; [4]): A (a compound having 10 or more and less than 20 is denoted as A)

SMILES: CCCN1C(=O)CN(C)C(=O)CN(C)C(=O)[C@H]([C@@H](C)CC)NC(=O)[C@H](CC(C)C)N(C)C(=O)C[C@@H](C(=O)N2CCOCC2)N(C)C(=O)[C@H](C2CCCC2)N(C)C(=O)C2(COC2)NC(=O)[C@@H]2CCCN2C(=O)[C@H](CCc2ccc(C(F)(F)F)c(Cl)c2)NC(=O)CN(C)C(=O)[C@@H]1Cc1ccc(C(F)(F)F)cc1 [PP1922] ([NMeL]I[Sar][Sar][NPrPhe(4-CF3)][Sar][hPhe(3-Cl-4-CF3)]P[Ac4c(3-oxa)][NMeGly(cPent)][NMeD]-Morpholide; lactam N-11)
- IC50 [1]: 44.1 nM
- NRAS /KRAS [2, 5]: B (a compound having 3 or more and less than 10 is denoted as B)
- HRAS /KRAS (HRAS wild-type protein; [6]): C (A compound having a KD ratio of 0.1 or more and less than 3 is denoted as C)

SMILES: CCC[C@H]1C(=O)N[C@@H]([C@@H](C)CC)C(=O)N(C)CC(=O)N(C)[C@H]2C/C=C\CCN(C2=O)[C@@H](Cc2ccc(C)cc2)C(=O)N(C)CC(=O)N[C@@H](CCc2ccc(C(F)(F)F)c(Cl)c2)C(=O)N2C[C@H](OCC)C[C@H]2C(=O)NC2(CC(C)(C)C2)C(=O)N(C)[C@@H](C(CC)CC)C(=O)N(C)[C@H](C(=O)N(C)C)CC(=O)N1C [PP2146]
- IC50 [1]: 8.2 nM
- NRAS /KRAS [2, 5]: A (a compound having 10 or more and less than 20 is denoted as A)
- HRAS /KRAS (HRAS wild-type protein; [6]): A (a compound having 10 or more and less than 20 is denoted as A)

SMILES: C#CCN1CC(=O)N(C)[C@H]2C/C=C\CCN(C2=O)[C@@H](Cc2ccc(C)cc2)C(=O)N(C)CC(=O)N[C@@H](CCc2cc(F)c(C(F)(F)F)c(F)c2)C(=O)N2C[C@H](OCC)C[C@H]2C(=O)NC2(CC(C)(C)C2)C(=O)N(C)[C@@H](C2CCCC2)C(=O)N(C)[C@H](C(=O)N(C)C)CC(=O)N(C)[C@@H](CCC)C(=O)N[C@@H]([C@@H](C)CC)C1=O [PP2095]
- IC50 [1]: 5.7 nM
- NRAS /KRAS [2, 5]: A (a compound having 10 or more and less than 20 is denoted as A)
- HRAS /KRAS (HRAS wild-type protein; [6]): A (a compound having 10 or more and less than 20 is denoted as A)

SMILES: CC[C@H](C)[C@@H]1NC(=O)[C@H](CC(C)C)N(C)C(=O)C[C@@H](C(=O)N(C)CC)N(C)C(=O)[C@H](C2CCCC2)N(C)C(=O)C2(CCC2)NC(=O)[C@@H]2C[C@H](C)CN2C(=O)[C@H](CCc2ccc(C(F)(F)F)c(OC)c2)NC(=O)CN(C)C(=O)[C@H](Cc2ccc(C)cc2)N2CC/C=C\C[C@@H](C2=O)N(C)C(=O)CN(C)C1=O [PP1904]
- IC50 [1]: 18.3 nM
- NRAS /KRAS [2, 5]: A (a compound having 10 or more and less than 20 is denoted as A)
- HRAS /KRAS (HRAS wild-type protein; [6]): B (a compound having 3 or more and less than 10 is denoted as B)

SMILES: CCO[C@@H]1C[C@H]2C(=O)NC3(CCC3)C(=O)N(C)[C@@H](C3CCCC3)C(=O)N(C)[C@H](C(=O)N(C)C)CC(=O)N(C)[C@@H](CC3CC3)C(=O)N[C@@H]([C@@H](C)CC)C(=O)N(C)CC(=O)N(C)[C@H]3C/C=C\CCN(C3=O)[C@@H](Cc3ccc(C(F)(F)F)cc3)C(=O)N(C)CC(=O)N[C@@H](CCc3cc(F)c(C(F)(F)F)c(F)c3)C(=O)N2C1 [PP1111]
- IC50 [1]: 13 nM
- NRAS /KRAS [2, 3]: A (a compound having 10 or more and less than 20 is denoted as A)
- HRAS /KRAS (HRAS wild-type protein; [4]): A (a compound having 10 or more and less than 20 is denoted as A)

SMILES: CCC[C@H]1C(=O)N[C@@H]([C@@H](C)CC)C(=O)N(C)CC(=O)N(C)[C@H]2C/C=C\CCN(C2=O)[C@@H](Cc2ccc(C)cc2)C(=O)N(C)CC(=O)N[C@@H](CCc2cc(Cl)c3sccc3c2)C(=O)N2C[C@H](OCC)C[C@H]2C(=O)NC2(CC(C)(C)C2)C(=O)N(C)[C@@H](C(CC)CC)C(=O)N(C)[C@H](C(=O)N(C)C)CC(=O)N1C [PP2890]
- IC50 [1]: 10.3 nM
- NRAS /KRAS [2, 3]: AA (a compound having 20 or more is denoted as AA)
- HRAS /KRAS (HRAS wild-type protein; [4]): A (a compound having 10 or more and less than 20 is denoted as A)

SMILES: CCO[C@@H]1C[C@H]2C(=O)NC3(CC(C)(C)C3)C(=O)N(C)[C@@H](C3CCCC3)C(=O)N(C)[C@H](C(=O)N3CCOCC3)CC(=O)N(C)[C@@H](COC)C(=O)N[C@@H]([C@@H](C)CC)C(=O)N(C)CC(=O)N(C)[C@H]3CCCCCN(C3=O)[C@@H](Cc3ccc(C(F)(F)F)cc3)C(=O)N(C)CC(=O)N[C@@H](CCc3cc(F)c(C(F)(F)F)c(F)c3)C(=O)N2C1 [PP0844]
- IC50 [1]: 50.2 nM
- NRAS /KRAS [2, 3]: B (a compound having 3 or more and less than 10 is denoted as B)
- HRAS /KRAS (HRAS wild-type protein; [4]): B (a compound having 3 or more and less than 10 is denoted as B)
